Some test systems named below: HOP-62 NSCLC; MALME-3M melanoma; NCI-H522 lung; OVCAR-4 ovarian; HOP-92 NSCLC; HCC-2998 colon; EKVX NSCLC; RPMI-8226 leukemia; OVCAR-5 ovarian; NCI-H226 lung.
Common to all, as to experiment: growth of human tumour cells (NCI), 48 h

Where “and” joins values, the source holds several entries; their conditions need not be identical. Equal values may be shown once.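 96-well plates; 48 h exposure; 5 concentrations. Endpoints by linear interpolation between flanking doses. Not reached: highest tested concentration assigned. GI50 = concentration required for 50% inhibition of growth. The concentration for full growth arrest is given as TGI.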 A value given as a limit tells only on which side of the number the result lay.

Take `O=C1C=CC(=O)N1c1ccc2c(c1)Cc1cc(NC(=O)C(F)(F)F)ccc1-2`: the TGI with HOP-62 NSCLC was 50.7 µM; with MALME-3M melanoma, 40.1 µM; with NCI-H522 lung, 11.3 µM; in the assay with OVCAR-4 ovarian it was 31.2 µM; in the assay on HOP-92 NSCLC, 33.1 µM; in the assay on HCC-2998 colon, more than 58.9 µM. The TGI was determined as 29.3 µM with EKVX NSCLC, 14.3 µM with RPMI-8226 leukemia, 31.8 µM in the assay on OVCAR-5 ovarian and 17.6 µM in the assay with NCI-H226 lung.
In the case of `CC1CC(C)C(=O)C(C(=O)CC2CC(=O)NC2=O)C1` (stereo not given), the TGI in the assay on HOP-62 NSCLC, with MALME-3M melanoma, with NCI-H522 lung, with OVCAR-4 ovarian, with HOP-92 NSCLC and with HCC-2998 colon was more than 100 µM each time. In addition, the TGI in the assay on EKVX NSCLC, in the assay with RPMI-8226 leukemia, with OVCAR-5 ovarian and in the assay with NCI-H226 lung was more than 100 µM throughout.
As for `C=C1C(=O)O[C@H]2[C@H]1CC/C(Cn1cc(Cn3ccc4cc(Cl)ccc43)nn1)=C\CC[C@@]1(C)O[C@@H]21`, the GI50 with HOP-62 NSCLC was 4.9 µM; with MALME-3M melanoma it was 1.58 µM; in the assay with NCI-H522 lung it was 1.26 µM; in the assay with OVCAR-4 ovarian, 1.53 µM; in the assay on HOP-92 NSCLC, 0.489 µM; in the assay on HCC-2998 colon it was 1.98 µM. In addition, the GI50 was 1.73 µM in the assay with EKVX NSCLC, 0.796 µM in the assay on RPMI-8226 leukemia, 1.65 µM with OVCAR-5 ovarian and 1.59 µM in the assay on NCI-H226 lung. For the same molecule, the TGI amounted to 20.1 µM with HOP-62 NSCLC; 3.13 µM in the assay with MALME-3M melanoma; 2.87 µM in the assay on NCI-H522 lung; 3.02 µM in the assay on OVCAR-4 ovarian; 1.74 µM with HOP-92 NSCLC; 3.92 µM with HCC-2998 colon. Moreover, the TGI in the assay on EKVX NSCLC came to 3.78 µM; in the assay on RPMI-8226 leukemia, 3.03 µM; with OVCAR-5 ovarian, 3.54 µM; in the assay with NCI-H226 lung, 3.03 µM.
Consider `CCSc1nc(=S)[nH]c2[nH]ncc12`, for which the GI50 in the assay on HOP-62 NSCLC was more than 100 µM; in the assay with MALME-3M melanoma, more than 100 µM; in the assay with NCI-H522 lung, 46.1 µM; with OVCAR-4 ovarian it was more than 100 µM; in the assay with HOP-92 NSCLC, 91.6 µM; in the assay with HCC-2998 colon, 59.1 µM. The GI50 in the assay on EKVX NSCLC is 54.1 µM; with RPMI-8226 leukemia it was more than 100 µM; in the assay on OVCAR-5 ovarian, more than 100 µM; with NCI-H226 lung, 70.6 µM. Also, the TGI in the assay with HOP-62 NSCLC, in the assay on MALME-3M melanoma, in the assay with NCI-H522 lung, in the assay with OVCAR-4 ovarian, in the assay with HOP-92 NSCLC and with HCC-2998 colon was more than 100 µM each time. In addition, the TGI in the assay on EKVX NSCLC, with RPMI-8226 leukemia, in the assay on OVCAR-5 ovarian and with NCI-H226 lung was more than 100 µM throughout.
Regarding `CC1=Cc2cc3[n-]c(cc4nc(cc5[n-]c(cc1n2)c(C)c5CCC(=O)O)C(CCC(=O)O)=C4C)cc3C.[Cu+2]`, the GI50 was > 1 µM and 20.8 µM in the assay on HOP-62 NSCLC; > 1 µM and 7.39 µM in the assay on MALME-3M melanoma; 8.84 µM in the assay on NCI-H522 lung; more than 100 µM in the assay with OVCAR-4 ovarian; > 1 µM and 13.6 µM in the assay with HOP-92 NSCLC; more than 100 µM in the assay with HCC-2998 colon. Besides, the GI50 in the assay with EKVX NSCLC is more than 66.4 µM; in the assay with RPMI-8226 leukemia, > 1 µM and 53.9 µM; in the assay with OVCAR-5 ovarian, more than 100 µM; with NCI-H226 lung it was > 1 µM and 62 µM. In addition, the TGI is > 1 µM and 59.1 µM in the assay with HOP-62 NSCLC; > 1 µM and 18.6 µM with MALME-3M melanoma; 30.4 µM with NCI-H522 lung; more than 100 µM in the assay on OVCAR-4 ovarian; > 1 µM and 34.3 µM in the assay with HOP-92 NSCLC; more than 100 µM with HCC-2998 colon. For the same molecule, the TGI with EKVX NSCLC is more than 100 µM; in the assay with RPMI-8226 leukemia it was more than 80 µM; with OVCAR-5 ovarian, more than 100 µM; with NCI-H226 lung, more than 87.2 µM.
Take `O=C1C(Br)=C(c2ccccc2)C(c2ccccc2)=C1c1ccccc1`: the TGI in the assay on HOP-62 NSCLC was 23 µM; in the assay with MALME-3M melanoma, 3.33 µM; with NCI-H522 lung it was 1.77 µM; in the assay with OVCAR-4 ovarian it was 4.98 µM; in the assay on HOP-92 NSCLC, 3.84 µM; in the assay with HCC-2998 colon it was 15.9 µM. The TGI with EKVX NSCLC is 18 µM; in the assay with RPMI-8226 leukemia it was 5.22 µM; in the assay with OVCAR-5 ovarian, 25.5 µM; in the assay on NCI-H226 lung it was 21.8 µM.
Consider `COc1cc(C(=O)O)ccc1NC(=O)[C@@H]1N[C@@H](CC(C)(C)C)[C@](C#N)(c2ccc(Cl)cc2F)[C@H]1c1cccc(Cl)c1F`, for which the GI50 is 6.04 µM in the assay with HOP-62 NSCLC; 0.0448 µM in the assay with MALME-3M melanoma; 2.72 µM with NCI-H522 lung; 4.56 µM in the assay with OVCAR-4 ovarian; 2.48 µM in the assay on HOP-92 NSCLC; 4.62 µM in the assay with HCC-2998 colon. The GI50 is 6.51 µM in the assay with EKVX NSCLC, 2.51 µM in the assay with RPMI-8226 leukemia, 7.23 µM with OVCAR-5 ovarian and 0.0941 µM in the assay with NCI-H226 lung. For the same molecule, the TGI with HOP-62 NSCLC is 17.4 µM; with MALME-3M melanoma, 8.27 µM; in the assay on NCI-H522 lung, 10.8 µM; in the assay on OVCAR-4 ovarian, 29.6 µM; with HOP-92 NSCLC, 5.15 µM; in the assay on HCC-2998 colon it was 13.3 µM. Besides, the TGI in the assay with EKVX NSCLC was 24 µM; with RPMI-8226 leukemia, more than 22.9 µM; with OVCAR-5 ovarian, 24.9 µM; with NCI-H226 lung, 1.71 µM.
As to `COc1cc2c3c(n(CCCn4ccnc4)c(=O)c2cc1OC)-c1ccccc1C3=O`, the GI50 in the assay with HOP-62 NSCLC was less than 0.0162 µM; with MALME-3M melanoma, 1.06 µM; in the assay on NCI-H522 lung it was less than 0.01 µM; in the assay on OVCAR-4 ovarian, 0.468 µM; in the assay on HOP-92 NSCLC, 0.0343 µM; in the assay on HCC-2998 colon it was 0.0598 µM. Besides, the GI50 is 0.833 µM in the assay on EKVX NSCLC, less than 0.0171 µM in the assay on RPMI-8226 leukemia, 0.26 µM in the assay with OVCAR-5 ovarian and 0.05 µM in the assay with NCI-H226 lung. For the same molecule, the TGI was 0.141 µM with HOP-62 NSCLC; more than 60.8 µM in the assay with MALME-3M melanoma; 0.0612 µM in the assay with NCI-H522 lung; 22.4 µM in the assay on OVCAR-4 ovarian; 3 µM in the assay with HOP-92 NSCLC; 0.504 µM in the assay on HCC-2998 colon. Besides, the TGI in the assay with EKVX NSCLC was more than 100 µM; in the assay with RPMI-8226 leukemia it was 0.355 µM; with OVCAR-5 ovarian, 1.25 µM; in the assay with NCI-H226 lung, 0.983 µM.
Consider `C/C(=N\[N+](C)(C)C)C(c1ccccc1)C1(c2ccccc2)C(c2ccccc2)=C1c1ccccc1` (stereo not given), for which the TGI with HOP-62 NSCLC, with MALME-3M melanoma, in the assay with NCI-H522 lung, in the assay with OVCAR-4 ovarian, with HOP-92 NSCLC and with HCC-2998 colon was more than 100 µM each time. The TGI in the assay with EKVX NSCLC is more than 100 µM; in the assay on RPMI-8226 leukemia, more than 100 µM; with OVCAR-5 ovarian, more than 100 µM; in the assay on NCI-H226 lung it was 93.4 µM.
On to `O=[N+]([O-])c1ccccc1/C=C/C=C1c2ccccc2-c2ccccc21`, for which the GI50 in the assay on HOP-62 NSCLC, in the assay on MALME-3M melanoma, in the assay with NCI-H522 lung, in the assay on OVCAR-4 ovarian, in the assay with HOP-92 NSCLC and in the assay with HCC-2998 colon was more than 100 µM in each case. In addition, the GI50 in the assay on EKVX NSCLC, in the assay on RPMI-8226 leukemia, in the assay on OVCAR-5 ovarian and in the assay on NCI-H226 lung was more than 100 µM in each case. Further, the TGI in the assay with HOP-62 NSCLC, in the assay on MALME-3M melanoma, in the assay on NCI-H522 lung, with OVCAR-4 ovarian, in the assay with HOP-92 NSCLC and in the assay on HCC-2998 colon was more than 100 µM throughout. In addition, the TGI in the assay with EKVX NSCLC, in the assay with RPMI-8226 leukemia, with OVCAR-5 ovarian and in the assay on NCI-H226 lung was more than 100 µM in each case.
With `COc1ccc(/C(Cl)=C(\C=O)c2cc(OC)c(OC)c(OC)c2)cc1OC`, the TGI with HOP-62 NSCLC is more than 100 µM; in the assay on MALME-3M melanoma it was more than 92.6 µM; in the assay on NCI-H522 lung, 48.8 µM; with OVCAR-4 ovarian, more than 100 µM; in the assay with HOP-92 NSCLC, more than 100 µM; with HCC-2998 colon it was more than 100 µM. For the same molecule, the TGI in the assay with EKVX NSCLC is more than 100 µM; with RPMI-8226 leukemia, 77 µM; in the assay with OVCAR-5 ovarian, more than 100 µM; in the assay with NCI-H226 lung, 70.6 µM.
In the case of `O[C@H]1[C@H]2[C@H](O)CCCN2C[C@H]1O`, the TGI in the assay with HOP-62 NSCLC, in the assay on MALME-3M melanoma, with NCI-H522 lung, with OVCAR-4 ovarian, in the assay on HOP-92 NSCLC and in the assay with HCC-2998 colon was more than 100 µM in each case. Besides, the TGI in the assay with EKVX NSCLC, with RPMI-8226 leukemia, in the assay on OVCAR-5 ovarian and with NCI-H226 lung was more than 100 µM throughout.

The record behind these values is PubChem BioAssay (NCI).
